According to patent US20240361338A1, “DIAGNOSIS AND TREATMENT OF ECTOPIC ENDOMETRIOSIS” (FERRING B.V., priority 2021, published 2024):

Tests used:
[1] = tested on: experimentally induced endometriosis; conditions: Akyol et al., 2016; cited from earlier work
eutopic E-MSCs = experiment: Endothelial differentiation (CD31) of eutopic E-MSCs in co-culture with HUVECs; format: cell-based, human; conditions: 100 nM, 24-h treatment, 48 h co-culture with HUVECs
HUVECs = experiment: BrdU cell proliferation assay on HUVECs; format: cell-based, human; conditions: after 24 hours of quinagolide treatment, 10^-5 and 10^-7 M
Method: (§1) FIG. 3: Quinagolide effect on EMSCs apoptosis and proliferation. A: Quinagolide concentration-response curve on ectopic EMSCs in both apoptosis (N=1) and proliferation (N=2) assays. B: Effect of two selected quinagolide doses (10^−5 and 10^−7M) on HUVECs (N=1) and ectopic E-MSCs (N=3) apoptosis and proliferation assays (N=2). Data are represented as mean±SD of the indicated number of experiments and normalized to untreated cells (Control). Cells were plated in growth medium at a concentration of 2,500 HUVECs/well and 3,000 E-MSCs/well in a 96-multiwell plate. The day after quinagolide was added to the growth medium at different concentrations after 24 hours. Deoxyribonucleic acid synthesis was detected as incorporation of 5-bromo-2-deoxyuridine (BrdU) into the cellular DNA after 48 hours from cell plaiting, using an enzyme-linked assay kit (Chemicon). Untreated cells were used as control. Data are expressed as the mean±standard deviation (SD) of the media of absorbance of at least three different experiments and normalized to control.

AKT [2] = experiment: Western blot of AKT and P-AKT in ectopic EMSCs; format: cell-based, human; conditions: 100 nM quinagolide
Method: (§2) FIG. 6: Quinagolide effect on AKT activation. A: Representative western blot analysis and quantification of AKT levels in eutopic and ectopic EMSCs treated for 48 h with 100 nM quinagolide (Q), compared to untreated cells (CTL). B: Representative western blot analysis and quantification of P-AKT levels, normalized to AKT expression, in eutopic and ectopic EMSCs treated for 48 h with 100 nM quinagolide (Q), respect to untreated cells (CTL). C: Representative western blot analysis and quantification of P-AKT levels in HUVECs, ectopic […] basal), and in […] co-culture with HUVECs, treated or not for 24 h with 100 nM quinagolide (Q100 nM). Data are represented as mean±SD of at least two independent experiments, performed on different EMSC lines, and normalized to Vinculin and to untreated cells (CTL). One-way ANOVA was performed: *=p<0.05 and **=p<0.001 vs CTL. Cell pellets were lysed at 4° C. for 15 minutes in RIPA buffer supplemented with protease and phosphatase inhibitors cocktail and PMSF (Sigma-Aldrich). Proteins were quantified using Bradford solution following the manufacturer procedures (Bio-Rad Inc., Berkely, CA, USA) and aliquots of cell lysates containing 50 μg of proteins were run on 4-12% Mini-Protean TGX Stain-Free Gels (Bio-Rad) under reducing conditions and transferred onto PVDF membrane filters using the iBLOT2 system (Life Technologies). […]

AKT [3] = experiment: Western blot of P-AKT in eutopic EMSCs; format: cell-based, human; conditions: eutopic cell lines, 100 nM quinagolide, 24 hours (text; legend 48 h)
Method: as §2

[4] = tested on: D2 mRNA expression in ectopic EMSCs; experiment: Real Time PCR of D2 mRNA expression after quinagolide treatment; format: cell-based, human; conditions: ectopic lines, 48 h of 100 nM quinagolide, vs untreated
Text: FIG. 2: Effect of quinagolide on D2 expression in eutopic and ectopic EMSCs. A: Western blot analysis showing the presence of D2 in […] different passages, and in sorted SUSD2^+ E-MSCs. B: Real Time PCR analysis showing the relative quantification (RQ) of D2 mRNA expression by eutopic and ectopic EMSCs. Data are represented as mean±SD of three different eutopic or ectopic (ovarian and peritoneal) lines and normalized to GAPDH and to eutopic […]: Real Time PCR analysis showing D2 mRNA expression after 48 h of 100 nM quinagolide treatment (Q100) by eutopic and ectopic EMSCs. Data are represented as mean±SD of three different eutopic or ectopic (ovarian and peritoneal) lines and normalized to GAPDH and to untreated […] was performed: *=P<0.05 vs CTL. Trizol Reagent (Ambion) was used to isolate total RNA of different cell preparations, according to the manufacturer's protocol. RNA was then quantified spectrophotometrically using Nanodrop ND-1000. Quantitative real-time PCR was performed for gene expression analysis. Briefly, using the HighCapacity cDNA Reverse Transcription Kit (Applied Biosystems), first-strand cDNA was produced from 200 ng of total RNA. […] Fold change expression respect to control was calculated for all samples.

endometriotic lesions = conditions: patients with severe endometriosis and hyperprolactinemia (Gomez et al, 2011); cited from earlier work
ectopic EMSCs = experiment: BrdU cell proliferation assay on E-MSCs; format: cell-based, human; conditions: different concentrations, after 24 hours
Method: as §1

CCCN1C[C@@H](NS(=O)(=O)N(CC)CC)C[C@@H]2Cc3c(O)cccc3C[C@H]21 [quinagolide, N,N-diethyl-N′-[(3S,4aS,10aR)-6-hydroxy-1-propyl-1,2,3,4,4a,5,10,10a-octahydrobenzo[g]quinolin-3-yl]sulfamide]
outcome in experimentally induced endometriosis rat model [1]: successfully tested
percentage of CD31 expressing E-MSCs after co-culture (eutopic E-MSCs): no significant alteration
proliferation of HUVEC cells (HUVECs): did not show alteration
total AKT levels (AKT [2]; ectopic EMSCs, 48 h (FIG. 6A)): reduced
AKT phosphorylation (AKT [2]; ectopic cell lines, 24 hours (text; legend 48 h)): significant decrease
AKT phosphorylation (AKT [3]): significant decrease
D2 mRNA expression [4]: reduced
size of endometriotic lesions (endometriotic lesions): reduced the size
proliferation of E-MSCs (BrdU) (ectopic EMSCs): did not affect proliferation
